Reference: US11597703B2, “Caspase inhibitors and methods of use thereof” (Histogen Inc., priority 2019, dated 2023)

How the values were obtained:
IL-1β = test: Inhibition of LPS-stimulated IL-1β in THP-1 cells (ELISA); format: cell-based, human; details: 10 micromolar; for inhibition at 10 µM: Homo sapiens, read-out: Percent Inhibition of IL1-β
Description: Compounds in the present invention were tested in THP-1 cells, a human monocyte cell line, to assess the inhibition of the inflammatory cytokine IL-1β. THP-1 cells (ATCC TIB-202) were grown in culture and seeded in 96 well plates at a concentration of 200,000 cells per well with a total volume of 150 μL. Plated cells were incubated overnight at 37 degrees C. under an atmosphere of 5% CO2. Media was removed from cells which were washed with PBS. Test compounds were diluted in DMSO stock solution and serially diluted appropriately for initial screening and IC50 determinations. LPS in serum free media (140 μL of […]) was added to each well to stimulate IL-1β production. IL-1β was measured by ELISA assay kit (R&D Systems) per the manufacturers instructions.
IC50 values for the inhibition of IL-1 in THP 1 cells were determined from dose response studies.

Caspase-3 = target: T1, Caspase-3 (Homo sapiens, UniProt P42574); test: Caspase-3 enzymatic inhibition assay, IC50; format: biochemical; details: read-out: Caspase 3 enzyme inhibition IC50
T1 construct: purchased Enzo Biosciences
T1 sequence (P42574 29-175 limits assumed): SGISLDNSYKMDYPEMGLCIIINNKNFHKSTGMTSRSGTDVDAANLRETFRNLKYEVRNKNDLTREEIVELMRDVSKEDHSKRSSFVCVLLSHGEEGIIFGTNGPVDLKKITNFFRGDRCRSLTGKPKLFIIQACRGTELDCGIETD
T1 sequence (P42574 176-277 limits assumed): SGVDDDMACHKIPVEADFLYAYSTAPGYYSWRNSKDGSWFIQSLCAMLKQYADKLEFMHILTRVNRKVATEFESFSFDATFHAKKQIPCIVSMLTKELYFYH
Description: (§1) Human caspases were purchased from Enzo Biosciences and used according to the manufacturer's instructions. An exemplary caspase assay, for Caspase-1, is provided below:
(§2) Enzymatic assays were conducted for Caspase-3, 6 and 7 activity according to the manufacture's instructions.

Caspase 7 = target: T2, Caspase 7 (Homo sapiens, UniProt P55210); test: Caspase 7 enzymatic inhibition assay, IC50; format: biochemical; details: read-out: Caspase 7 enzyme inhibition IC50
T2 construct: purchased Enzo Biosciences
T2 sequence (P55210 24-198 limits assumed): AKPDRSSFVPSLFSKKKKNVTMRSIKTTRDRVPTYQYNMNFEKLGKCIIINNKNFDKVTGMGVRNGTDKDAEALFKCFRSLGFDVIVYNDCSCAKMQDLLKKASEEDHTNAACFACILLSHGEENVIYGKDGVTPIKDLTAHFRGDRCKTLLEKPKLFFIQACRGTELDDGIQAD
T2 sequence (P55210 207-303 limits assumed): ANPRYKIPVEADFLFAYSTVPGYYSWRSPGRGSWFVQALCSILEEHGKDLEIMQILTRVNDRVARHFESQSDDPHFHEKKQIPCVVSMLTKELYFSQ
Description: as §1, §2

Caspase 6 = target: T3, Caspase 6 (Homo sapiens, UniProt P55212); test: Caspase 6 enzymatic inhibition assay, IC50; format: biochemical; details: read-out: Caspase 6 enzyme inhibition IC50
T3 construct: purchased Enzo Biosciences
T3 sequence (P55212 24-179 limits assumed): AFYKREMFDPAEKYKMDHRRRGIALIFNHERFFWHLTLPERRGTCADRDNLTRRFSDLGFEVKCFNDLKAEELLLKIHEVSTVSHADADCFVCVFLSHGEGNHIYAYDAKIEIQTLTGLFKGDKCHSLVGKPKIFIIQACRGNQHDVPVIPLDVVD
T3 sequence (P55212 194-293 limits assumed): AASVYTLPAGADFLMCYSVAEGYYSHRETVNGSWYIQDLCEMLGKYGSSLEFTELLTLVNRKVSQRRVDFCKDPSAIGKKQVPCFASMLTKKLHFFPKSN
Description: as §1, §2

Jurkat cells = test: Prevention of Fas-induced apoptosis in Jurkat cells (WST-8); format: cell-based; details: Homo sapiens, 10 micromolar, read-out: % Prevention of Fas - induced Jurkat cell apoptosis at 10 micromolar
Description: Compounds of the present invention were evaluated in Jurkat cells, a human T-lymphocyte cell line, to evaluate compounds ability to inhibit apoptotic cell death. Jurkat cells, Clone E6-1 (ATCC TIB-152) were grown in culture maintain a cell density between 0.5-2 million cells/mL. Cells were tested for viability and countion with typan blue stain before use. Test compounds were addedd to 96 well plates and Jurkat cells were added at a concentration of approximately 100,000 cells per well and mixed thoroughly by action of pipetting. Plated cells were incubated for 1 hour at 37 degrees C. under an atmosphere of 5% CO2. Anti-Fas antibody was added and mixed by pipet action. Plates were incubated for 20 hours at 37 degrees C. under an atmosphere of 5% CO2. 10 microliters of thawed WST-8 solution was added to each well and incubated for 4 hours. Absorbance was measured at 450 nm and control reading at […] using a SpectraMax ID5 plate reader. Apoptotic cell death is executed by caspases 3, 7 and 6. Compounds that lack activity against these caspases will not prevent the death of Jurkat cells and is a functional test of selectivity for inflammatory over apoptotic caspases.
IC50 values to protect against Fas induced apoptosis and improve survival of Jurkat cells were determined from dose response studies.

Caspase-1 = target: T4, Caspase-1 (Homo sapiens, UniProt P29466); test: Caspase-1 enzyme inhibition assay (Ac-YVAD-pNA substrate), IC50; format: biochemical
T4 construct: purchased Enzo Biosciences
T4 sequence (P29466 120-297 limits assumed): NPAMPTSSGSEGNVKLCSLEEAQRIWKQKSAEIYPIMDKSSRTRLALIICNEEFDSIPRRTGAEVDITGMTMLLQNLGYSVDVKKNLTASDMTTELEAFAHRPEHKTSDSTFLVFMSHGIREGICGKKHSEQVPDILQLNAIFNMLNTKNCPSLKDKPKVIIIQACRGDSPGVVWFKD
T4 sequence (P29466 317-404 limits assumed): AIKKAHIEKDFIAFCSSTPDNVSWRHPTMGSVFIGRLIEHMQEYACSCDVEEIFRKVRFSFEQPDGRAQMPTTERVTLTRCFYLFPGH
Description: as §1
Caspase-1 was diluted to 10 U/μl in assay buffer consisting of 50 mM HEPES, pH 7.4, 100 mM NaCl, 0.1% CHAPS, 1 mM EDTA, 10% glycerol and 10 mM DTT.
45 μl of assay buffer was added into ½ volume microtiter plate. The plate was allowed to equilibrate to assay temperature. 5 μl of Caspase-1 (10 U/μl) was added to each appropriate well. Two 2 blank wells containing assay buffer alone without Caspase-1 were included on the plate.
The reaction was started by the addition of 50 μl Ac-YVAD-pNA substrate, for a final substrate concentration of 200 μM. The reaction was continuously monitored at 405 nm. The data was graphed as OD405 nm vs time, and the slope was determined over the linear portion of the curve. The rates in OD/min were converted to substrate/min using an extinction coefficient for p-nitroaniline of 10,500M-1 cm-1, and were adjusted for pathlength of sample. […]

Row | Compound | Percent Inhibition of IL1-β (IL-1β) | IC50 (Caspase-3) | IC50 (Caspase 7) | inhibition at 10 µM (IL-1β) | IC50 (Caspase 6) | inhibition at 10 µM (Jurkat cells) | IC50 (Caspase-1)
1 | C[C@H](NC(=O)C(=O)Nc1c(F)cccc1F)C(=O)N[C@@H](CC(=O)O)C(=O)COc1c(F)c(F)cc(F)c1F [IDN-7314, reference compound] | A (A > 90%) | – | – | – | – | – | –
2 | C[C@H](NC(=O)C(=O)Nc1c(F)cccc1F)C(=O)N[C@@H](CCOCc1ccsc1)C(=O)COc1c(F)c(F)cc(F)c1F [Example 4, N^1-(2,6-difluorophenyl)-N^2—((S)-1-oxo-1-(((S)-2-oxo-1-(2,3,5,6-tetrafluorophenoxy)-5-(thiophen-3-ylmethoxy)pentan-3-yl)amino)propan-2-yl)oxalamide] | – | ≥ 1000 nM | ≥ 1000 nM | 50 to 90% | ≥ 1000 nM | ≤ 10% | 10 to 100 nM
3 | C[C@H](NC(=O)C(=O)Nc1c(F)cccc1F)C(=O)N[C@@H](CCCC(=O)O)C(=O)COc1c(F)c(F)cc(F)c1F [Example 13, (S)-5-((S)-2-(2-((2,6-Difluorophenyl)amino)-2-oxoacetamido)propanamido)-6-oxo-7-(2,3,5,6-tetrafluorophenoxy)heptanoic acid] | – | ≥ 1000 nM | ≥ 1000 nM | 50 to 90% | ≥ 1000 nM | ≤ 10% | 10 to 100 nM
4 | C[C@H](NC(=O)C(=O)Nc1ccccc1C(C)(C)C)C(=O)N[C@@H](CCC(=O)O)C(=O)COc1c(F)c(F)cc(F)c1F [Example 11, (S)-4-((S)-2-(2-((2-(tert-Butyl)phenyl)amino)-2-oxoacetamido)propanamido)-5-oxo-6-(2,3,5,6-tetrafluorophenoxy)hexanoic acid] | – | ≥ 1000 nM | 100 to 1000 nM | > 90% | ≥ 1000 nM | ≤ 10% | ≤ 10 nM
5 | C[C@H](NC(=O)C(=O)Nc1cnc2ccccc2c1)C(=O)N[C@@H](CCC(=O)O)C(=O)COc1c(F)c(F)cc(F)c1F [Example 35, (S)-5-oxo-4-((S)-2-(2-oxo-2-(quinolin-3-ylamino)acetamido)propanamido)-6-(2,3,5,6-tetrafluorophenoxy)hexanoic acid] | – | ≥ 1000 nM | ≥ 1000 nM | – | ≥ 1000 nM | – | ≤ 10 nM
6 | C[C@H](NC(=O)C(=O)Nc1c(F)cccc1F)C(=O)N[C@@H](CCC(=O)OCc1ccccc1)C(=O)COc1c(F)c(F)cc(F)c1F [Example 28, benzyl(S)-4-((S)-2-(2-((2,6-difluorophenyl)amino)-2-oxoacetamido)propanamido)-5-oxo-6-(2,3,5,6-tetrafluorophenoxy)hexanoate] | – | ≥ 1000 nM | ≥ 1000 nM | – | ≥ 1000 nM | – | ≤ 10 nM
7 | C[C@H](NC(=O)C(=O)Nc1ncccn1)C(=O)N[C@@H](CCC(=O)O)C(=O)COc1c(F)c(F)cc(F)c1F [Example 42, (S)-5-oxo-4-((S)-2-(2-oxo-2-(pyrimidin-2-ylamino)acetamido)propanamido)-6-(2,3,5,6-tetrafluorophenoxy)hexanoic acid] | – | ≥ 1000 nM | ≥ 1000 nM | – | ≥ 1000 nM | – | ≤ 10 nM
8 | C[C@H](NC(=O)C(=O)Nc1cccc(-c2nnn[nH]2)c1)C(=O)N[C@@H](CCC(=O)O)C(=O)COc1c(F)c(F)cc(F)c1F [Example 31, (S)-4-((S)-2-(2-((3-(1H-tetrazol-5-yl)phenyl)amino)-2-oxoacetamido)propanamido)-5-oxo-6-(2,3,5,6-tetrafluorophenoxy)hexanoic acid] | – | ≥ 1000 nM | ≥ 1000 nM | – | ≥ 1000 nM | – | ≤ 10 nM
9 | COc1ccccc1NC(=O)C(=O)N[C@@H](C)C(=O)N[C@@H](CCC(=O)O)C(=O)COc1c(F)c(F)cc(F)c1F [Example 22, (S)-4-((S)-2-(2-((2-methyoxyphenyl)amino)-2-oxoacetamido)propanamido)-5-oxo-6-(2,3,5,6-tetrafluorophenoxy)hexanoic acid] | – | ≥ 1000 nM | ≥ 1000 nM | – | ≥ 1000 nM | – | ≤ 10 nM
10 | C[C@H](NC(=O)C(=O)Nc1cccc(C(F)(F)F)c1)C(=O)N[C@@H](CCC(=O)O)C(=O)COc1c(F)c(F)cc(F)c1F [Example 26, (S)-5-oxo-4-((S)-2-(2-oxo-2-((3-(trifluoromethyl)phenyl)amino)acetamido)propanamido)-6-(2,3,5,6-tetrafluorophenoxy) hexanoic acid] | – | ≥ 1000 nM | ≥ 1000 nM | – | ≥ 1000 nM | – | ≤ 10 nM
11 | CC(=O)c1ccc(NC(=O)C(=O)N[C@@H](C)C(=O)N[C@@H](CCC(=O)O)C(=O)COc2c(F)c(F)cc(F)c2F)cc1 [Example 30, (S)-4-((S)-2-(2-((4-acetylphenyl)amino)-2-oxoacetamido)propanamido)-5-oxo-6-(2,3,5,6-tetrafluorophenoxy)hexanoic acid] | – | ≥ 1000 nM | ≥ 1000 nM | – | ≥ 1000 nM | – | ≤ 10 nM
12 | C[C@H](NC(=O)C(=O)Nc1ccncc1)C(=O)N[C@@H](CCC(=O)O)C(=O)COc1c(F)c(F)cc(F)c1F [Example 37, (S)-5-oxo-4-((S)-2-(2-oxo-2-(pyridin-4-ylamino)acetamido)propanamido)-6-(2,3,5,6-tetrafluorophenoxy)hexanoic acid] | – | ≥ 1000 nM | ≥ 1000 nM | – | ≥ 1000 nM | – | ≤ 10 nM
13 | C[C@H](NC(=O)C(=O)Nc1ccc(C(F)(F)F)cc1)C(=O)N[C@@H](CCC(=O)O)C(=O)COc1c(F)c(F)cc(F)c1F [Example 27, (S)-5-oxo-4-((S)-2-(2-oxo-2-((4-(trifluoromethyl)phenyl)amino)acetamido)propanamido)-6-(2,3,5,6-tetrafluorophenoxy) hexanoic acid] | – | ≥ 1000 nM | ≥ 1000 nM | – | ≥ 1000 nM | – | ≤ 10 nM
14 | C[C@H](NC(=O)C(=O)Nc1ccccn1)C(=O)N[C@@H](CCC(=O)O)C(=O)COc1c(F)c(F)cc(F)c1F [Example 39, (S)-5-oxo-4-((S)-2-(2-oxo-2-(pyridin-2-ylamino)acetamido)propanamido)-6-(2,3,5,6-tetrafluorophenoxy)hexanoic acid] | – | ≥ 1000 nM | ≥ 1000 nM | – | ≥ 1000 nM | – | ≤ 10 nM
